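48-hour exposure; five concentrations; linearly interpolated endpoints. Abbreviation: GI50, concentration required for 50% inhibition of growth.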 The source made the active and inactive calls. Rule as the data show it: active = GI50 up to about 1.1 µM and inactive = higher.
Assays:
Experiment in all cases: NCI tumour cell line growth inhibition, 48 h
[1] = system: EKVX
[2] = system: MDA-MB-231
[3] = system: SNB-19
[4] = system: NCI-H23
[5] = system: HOP-62
[6] = system: IGROV-1
[7] = system: HL-60
[8] = system: A498
[9] = system: M14
[10] = system: OVCAR-3
[11] = system: DU-145
[12] = system: HT-29
[13] = system: UACC-257
[14] = system: HCC 2998
[15] = system: NCI-H460
[16] = system: SK-OV-3
[17] = system: PC-3
[18] = system: NCI-H522

Measured: GI50

CC1=C(C(=O)NNC(=O)CC#N)CC(C(=O)NNC(=O)CC#N)=C(C)N1
inactive: [1] > 100 µM | [2] > 100 µM | [3] > 100 µM | [4] > 100 µM | [5] > 100 µM | [6] > 100 µM | [7] 82.6 µM | [8] > 100 µM | [9] > 100 µM | [10] > 100 µM | [11] > 100 µM | [12] > 100 µM | [13] > 100 µM | [14] > 100 µM | [15] > 100 µM | [16] > 100 µM

COC1C(OC(N)=O)C(O)C(Oc2ccc3c(O)c(NC(=O)c4ccc(O)c(CC=C(C)C)c4)c(=O)oc3c2C)OC1(C)C (stereo not drawn)
inactive: [17] > 100 µM | [1] > 100 µM | [2] > 100 µM | [3] > 100 µM | [5] > 100 µM | [6] > 100 µM | [8] > 100 µM | [9] > 100 µM | [10] > 100 µM | [11] > 100 µM | [12] > 100 µM | [13] > 100 µM | [14] 47.5 µM | [15] 62.2 µM | [16] > 100 µM

O=C1OC[C@@H]2Cc3cc4c(cc3[C@H](c3ccc5c(c3)OCO5)[C@@H]12)OCO4
inactive: [1] > 25 µM | [2] 22.7 µM | [3] > 25 µM | [4] > 25 µM | [5] 24.7 µM | [7] 10.6 µM | [9] > 25 µM | [10] > 25 µM | [11] > 25 µM | [12] 24.1 µM | [13] > 25 µM | [14] > 25 µM | [15] > 25 µM

Cc1ccc(C2CC(=O)CC(c3ccc(C)cc3)C23C(=O)NC(=O)NC3=O)cc1 (stereo not drawn)
inactive: [17] > 100 µM | [1] > 100 µM | [2] > 100 µM | [3] > 100 µM | [4] > 100 µM | [5] 28.9 µM | [6] > 100 µM | [7] > 10 µM | [9] > 100 µM | [10] > 100 µM | [11] > 100 µM | [12] > 100 µM | [18] > 100 µM | [13] > 100 µM | [14] > 100 µM | [15] > 100 µM

CC(Nc1ccc(S(=O)(=O)NC(=N)N)cc1)c1c2ccccc2nc2ccccc12 (stereo not drawn)
inactive: [1] 25.5 µM | [3] 40 µM | [4] 22.5 µM | [6] 46.5 µM | [7] 14.5 µM | [9] 41 µM | [10] > 10 µM | [12] 35.4 µM | [18] 15.1 µM | [13] 35.3 µM | [14] 27.5 µM | [15] 25.4 µM | [16] 26.4 µM

CCOP(=O)(OCC)/C(C#N)=C/c1cn(C)cn1
inactive: [17] > 100 µM | [1] > 100 µM | [2] > 100 µM | [3] > 100 µM | [4] > 100 µM | [5] > 100 µM | [6] > 100 µM | [8] > 100 µM | [9] > 100 µM | [10] > 100 µM | [12] > 100 µM | [18] > 100 µM | [13] > 100 µM | [14] > 100 µM | [15] > 100 µM | [16] > 100 µM

Cc1ccc2oc(=O)cc(CC(=O)O)c2c1
inactive: [1] > 100 µM | [3] > 100 µM | [4] > 100 µM | [5] > 100 µM | [6] > 100 µM | [7] > 100 µM | [8] > 100 µM | [9] > 100 µM | [10] > 100 µM | [12] > 100 µM | [18] > 100 µM | [14] > 100 µM | [15] > 100 µM | [16] > 100 µM

Reference: ChEMBL document CHEMBL1201862, “PubChem BioAssay data set” (2004)
